By IC50 is commonly meant the concentration that inhibits the measured activity by half.

Structures can show the parent of a compound that is named as a salt. Where two headings read alike, the source gives them in different places.

The results in this text go back to US12215123B2, “Cordycepin-based derivatized compound with anti-tumor effect” (NANJING TECH UNIVERSITY, priority 2022, dated 2025).

Data set [1] relates to small cell lung cancer cell line H1048. Nature of the data set: MTT proliferation, small cell lung cancer cell line H1048. The settings on record: MTT, 72 hours, H1048, read-out: IC50 (μM) of compounds in small cell lung cancer cells, H1048. It is filed as cell-based. On the procedure: (§1) The method for determining inhibitory activities of the compounds on the proliferation of tumor cells by an MTT method is as follows: a bottle of cells in a good state in an exponential growth phase is added with 0.25% trypsin digestive juice, the digestion makes adherent cells fall off, with 2 to 4×10^4 cells/mL, and a cell suspension is prepared. The cell suspension is inoculated on a 96-well plate, with 90 μL/well, and cultured in a constant-temperature CO2 incubator for 24 hours. The prepared compounds are added for testing, with 10 μL/well, and cultured for 72 hours. An MTT reagent is added into a 96-well plate, with 10 μL/well, and reacts in an incubator for 4 hours to absorb a supernatant, and then dimethyl sulfoxide is added, with 100 μL/well. After a crystal is dissolved, an absorbance of each well at a wavelength of 570 nm is measured by an enzyme-linked immunosorbent assay instrument, and a cell inhibition rate is calculated. An S curve is made with a compound concentration and a corresponding inhibition rate. Therefore, IC50 of a corresponding compound is obtained.
(§2) Anti-tumor dose-effect relationship curves of cordycepin and compounds 1, 2, 4, 5, 7, 8, 10, 12, 16, 18, 21, 23, 24, 35 and 38 in small cell lung cancer cell lines H1048, H446 and H69 were analyzed by an MTT experimental method.

Data set [2] relates to small cell lung cancer cell line H446. The experiment in a line: MTT proliferation, small cell lung cancer cell line H446. Format: cell-based. The conditions noted are these: MTT; for IC50: 72 hours, H446, read-out: IC50 (μM) of compounds in small cell lung cancer cells, H446. On the procedure:
as §1, §2

Data set [3] concerns gastric cancer cell line BGC-823. The experiment in a line: MTT proliferation, gastric cancer cell line BGC-823. Format: cell-based. The settings on record: MTT, 72 hours, BGC-823, read-out: IC50 (μM) in gastric cancer cells, BGC-823. On the procedure: as §1
(§3) Anti-tumor dose-effect relationship curves of the cordycepin and 40 compounds prepared in gastric cancer cell lines AGS and BGC-823 were analyzed by an MTT experimental method.

The test system of data set [4] is gastric cancer cell line AGS. Nature of the data set: MTT proliferation, gastric cancer cell line AGS. Format: cell-based. The conditions noted are these: MTT, 72 hours, AGS; read-out: IC50 (μM) in gastric cancer cells, AGS. On the procedure:
as §1, §3

The test system of data set [5] is small cell lung cancer cell line H69. Nature of the data set: MTT proliferation, small cell lung cancer cell line H69. Format: cell-based. The conditions noted are these: MTT, 72 hours, H69; read-out: IC50 (μM) of compounds in small cell lung cancer cells, H69. On the procedure: as §1, §2
For data set [6], the system named is wild-type AB-line zebrafish. The conditions noted are these: 3 dpf to 5 dpf, 35° C.; survival rate>90% and teratogenicity<20%. On the procedure:
The zebrafish model is a wild-type AB-line zebrafish from College of Biotechnology and Pharmaceutical Engineering, Nanjing Tech University, and is carried out by a natural mating reproduction method, with 30 zebrafish of 2 dpf in each experimental group. The zebrafish is fed in fish culture water at 28° C. (water quality:200 mg of instant sea salt and CaCO3 are added into 1 L of reverse osmosis water with a conductivity of 480 uS/cm to 510 uS/cm, a pH value of 6.9 to 7.2, and a hardness of 53.7 mg/L to 71.6 mg/L), and the feeding management meets the requirements of international AAALAC certification.
240 3 dpf wild-type AB-line zebrafish were randomly selected in an 8-well plate, with 30 zebrafish in each well, and 3 mL of fish culture water in each well, the cordycepin was diluted according to a maximum lethal dose, dissolved in DMSO, and added into each well according to a concentration gradient (the maximum lethal dose was diluted by 100 times, in which 8 concentration gradient values were taken for the experiment), and meanwhile, a normal control group, a solvent control group G (5% glucose) and a solvent control group D (DMSO) were set. During the experiment, the zebrafish in each group were cultured at 35° C., after the zebrafish were treated to be 5 dpf with a sample to be tested, lethal and developmental malformation conditions of the zebrafish in different doses were investigated respectively, and a maximum tolerance dose (MTD) of the sample to be tested to normal zebrafish was determined under a concentration when survival rate>90% and teratogenicity<20%.

Regarding `Nc1ncnc2c1ncn2[C@@H]1O[C@H](COCCO)CC1O` (stereo partly shown) [Compound 1], the IC50 in data set [1] worked out at 27.4 µM; in data set [2] it was 23.8 µM; in data set [3], 64.4 µM; in data set [4], 81.7 µM; in data set [5], 20.6 µM.

Regarding `Nc1ncnc2c1ncn2[C@@H]1O[C@H](COCP(=O)(O)O)CC1O` (stereo partly shown) [Compound 3], the IC50 in data set [3] (Homo sapiens) came out at 61.4 µM; in data set [4], 86.7 µM.

Take `CC(C)COP(=O)(OCC(C)C)OC[C@@H]1CC(O)[C@H](n2cnc3c(N)ncnc32)O1` (stereo partly shown) [Compound 4, (5-(6-amino-9H-purine-9-yl)-4-hydroxytetrahydrofuran-2-yl)diisobutyl methylphosphate]: the IC50 was 42.1 µM in data set [1] (Homo sapiens, NCI-H1048, 72 h); 54.3 µM in data set [2] (Homo sapiens, NCI-H446, 72 h); 86.2 µM in data set [3] (Homo sapiens); 64.3 µM in data set [4]; 43.2 µM in data set [5].

For the compound `COC(=O)C(NP(=O)(OC[C@@H]1CC(O)[C@H](n2cnc3c(N)ncnc32)O1)Oc1ccccc1)C(C)C` (stereo partly shown) [Compound 6], the “Maximum tolerance dose (MTD) in zebrafish model” value in data set [6] is 384 µM. Also, the IC50 was determined as 73.2 µM in data set [3] (Homo sapiens) and 66.8 µM in data set [4].

With `CC(C)[C@H](N)C(=O)OCC(CO)OCC1CC(O)C(n2cnc3c(N)ncnc32)O1` (stereo partly shown) [Compound 8, 2-(-5-(6-amino-9H-purin-9-yl)-4-hydroxytetrahydrofuran-2-yl)methoxy)-3-hydroxypropyl valine salt], the IC50 in data set [1] is 14.5 µM; in data set [2] it was 10.5 µM; in data set [3], 18.8 µM; in data set [4] it was 27.8 µM; in data set [5], 14.8 µM.

Take `O=C(Nc1ncnc2c1ncn2[C@@H]1O[C@H](CO)CC1O)c1ccncc1` (stereo partly shown) [Compound 12]: the IC50 in data set [1] (Homo sapiens, NCI-H1048, 72 h) was 22.2 µM; in data set [2] (Homo sapiens, NCI-H446, 72 h), 18.1 µM; in data set [3] (Homo sapiens), 1.34 µM; in data set [4], 1.23 µM; in data set [5], 19.5 µM.

Regarding `Nc1nc(S)nc2c1ncn2[C@@H]1O[C@H](COP(=O)(O)O)CC1O` (stereo partly shown) [Compound 14, (5-(6-amino-2-mercapto-9H-purine-9-yl)-4-hydroxytetrahydrofuran-2-yl)dihydromethyl phosphate], the IC50 is 18.6 µM in data set [3] (Homo sapiens) and 12.9 µM in data set [4].

For the compound `Nc1ncnc2c1ncn2[C@@H]1O[C@H](COP(=O)(O)O)[C@H](F)C1O` (stereo partly shown) [Compound 15, (5-(6-amino-9H-purine-9-yl)-3-fluoro-4-hydroxytetrahydrofuran-2-yl)dihydromethyl phosphate], the IC50 in data set [3] (Homo sapiens) is 20.7 µM; in data set [4], 18.4 µM.

As for `CC(C)(C)C(=O)OCOP(=O)(COC[C@@H]1CC(O)[C@H](n2cnc3c(N)nc(F)nc32)O1)OCOC(=O)C(C)(C)C` (stereo partly shown) [Compound 17], the IC50 in data set [3] (Homo sapiens) amounted to 2.39 µM; in data set [4], 1.32 µM.

As to `CC(C)(C)C(=O)OCOP(=O)(COC[C@@H]1CC(O)[C@H](n2cnc3c(NC(=O)c4ccncc4)ncnc32)O1)OCOC(=O)C(C)(C)C` (stereo partly shown) [Compound 23], the IC50 worked out at 17.4 µM in data set [1] (Homo sapiens, NCI-H1048, 72 h); 16.4 µM in data set [2] (Homo sapiens, NCI-H446, 72 h); 1.31 µM in data set [3] (Homo sapiens); 0.89 µM in data set [4]; 20.2 µM in data set [5].

Consider `CC(C)(C)C(=O)OCOP(=O)(COC[C@H]1O[C@@H](n2cnc3c(N)ncnc32)C(O)[C@H]1N=[N+]=[N-])OCOC(=O)C(C)(C)C` (stereo partly shown) [Compound 26, (((((5-(6-amino-9H-purine-9-yl)-3-azide-4-hydroxytetrahydrofuran-2-yl)methoxy)methyl)phosphoryl)bis(oxy))bis(methylene)bis(2,2-dimethylpropionic acid)], for which the IC50 in data set [3] (Homo sapiens) is 46.6 µM; in data set [4] it was 57.4 µM.

On to `CC(C)C(N)C(=O)OC1C[C@@H](CO)O[C@H]1n1cnc2c(N)ncnc21` (stereo partly shown) [Compound 29, 2-(6-amino-9H-purin-9-yl)-5-(hydroxymethyl)tetrahydrofuran-3-yl valine salt], for which the results for the IC50 in data set [3] (Homo sapiens) and in data set [4] were 41.4 µM and 32.5 µM, respectively.

`CC(C)C(N)C(=O)OC1C[C@@H](COP(=O)(O)O)O[C@H]1n1cnc2c(N)ncnc21` (stereo partly shown) [Compound 30, 2-(6-amino-9H-purin-9-yl)-5-(phosphonoxy)methyl)tetrahydrofuran-3-yl valine salt]: the IC50 stood at 64.2 µM in data set [3] (Homo sapiens) and 75.4 µM in data set [4].

Regarding `CC(C)C(N)C(=O)OC1C[C@@H](COP(=O)(O)O)O[C@H]1n1cnc2c(NC(=O)c3ccncc3)ncnc21` (stereo partly shown) [Compound 31, 2-(6-(isonicotinamide)-9H-purin-9-yl)-5-(phosphonyl)methyl)tetrahydrofuran-3-yl valine salt], the IC50 in data set [3] (Homo sapiens) was 33.6 µM; in data set [4] it was 41.2 µM.

On to `CCCCCOC1CC(COCP(=O)(O)O)OC1n1cnc2c(NC(=O)c3ccncc3)ncnc21` (stereo not shown) [Compound 32, (((5-(6-(isonicotinamide)-9H-purine-9-yl)-4-(pentoxy)tetrahydrofuran-2-yl)methoxy)methyl)phosphonic acid], for which the values for the IC50 in data set [3] and in data set [4] were 19.8 µM and 23 µM, respectively.

`COC(=O)C(C)NP(=O)(Oc1ccccc1)OC1C[C@@H](CO)O[C@H]1n1cnc2c(N)ncnc21` (stereo partly shown) [Compound 33, methyl(((2-(6-amino-9H-purin-9-yl)-5-(hydroxymethyl)tetrahydrofuran-3-yl)oxy)(phenoxy)phosphoryl)alanine salt]: the figures for the IC50 in data set [3] and in data set [4] were 29.5 µM and 36.5 µM, respectively.

As for `Nc1nc(/C=C/Br)nc2c1ncn2[C@@H]1O[C@H](COP(=O)(O)O)CC1O` (stereo partly shown) [Compound 38, (5-(6-amino-2-((E)-2-bromocarbonyl)-9H-purine-9-yl)-4-hydroxytetrahydrofuran-2-yl)dihydromethyl phosphate], the IC50 in data set [1] (Homo sapiens, NCI-H1048, 72 h) came to 1.37 µM; in data set [2] (Homo sapiens, NCI-H446, 72 h), 0.97 µM; in data set [3] (Homo sapiens), 104 µM; in data set [4], 134 µM; in data set [5], 1.25 µM. Also, the “killing effect on the three lines of cells in vitro” value in data set [2] (stated in words for all three lines H1048, H446 and H69) is reported as “strong killing effect”.

For `Nc1ncnc2c1ncn2C1OC(COC2CC(CO)C(O)C2O)CC1O` (stereo not shown) [Compound 40, 3-((5-(6-amino-9H-purin-9-yl)-4-hydroxytetrahydrofuran-2-yl)methoxy)-5-(hydroxymethyl)cyclopentane-1,2-diol], the figures for the IC50 in data set [3] (Homo sapiens) and in data set [4] were 189 µM and 164 µM, respectively.

Turning to “N-(2-fluoro-3-hydroxy-5-(hydroxymethyl)tetrahydrofuran-2-yl)-9H-purine-6-yl)octadecylamine [Compound 21]”, the IC50 in data set [1] is 6.38 µM; in data set [2], 4.58 µM; in data set [3], 4.38 µM; in data set [4] it was 2.46 µM; in data set [5], 2.95 µM.

On to “N-(3-hydroxy-5-(hydroxymethyl)tetrahydrofuran-2-yl)-9H-purine-6-yl)octadecylamine [Compound 10]”, for which the half-inhibitory concentration (IC50) in data set [1] was found to be 10.4 µM; in data set [2], 12.1 µM; in data set [3] it was 82.4 µM; in data set [4], 136 µM; in data set [5], 9.48 µM.

As to “N-(4-chloro-3-hydroxy-5-(hydroxymethyl)tetrahydrofuran-2-yl)-9H-purine-6-yl)octadecylamine [Compound 22]”, the IC50 stood at 53.7 µM in data set [3] and 45 µM in data set [4].

As to “isopropyl((((3-azide-4-hydroxy-5-(6-(isoniazid)-9H-purin-9-yl)tetrahydrofuran-2-yl)methoxy)methyl)(phenoxy)phosphoryl)alanine ester [Compound 28]”, the 50% inhibitory concentration (IC50) in data set [3] was determined as 5.42 µM; in data set [4], 3.47 µM.
